These results are taken from patent publication US20140336182A1, “Aurora Kinase Modulators and Method of Use” (Amgen Inc., priority 2013, published 2014).

Molecules are shown by their SMILES.

The test system of one test is HeLa cells. Kind of test: HeLa cell 24 hr ploidy assay (DNA content). The test is classed as cell-based. The note with it: HeLa cells, 4N ploidy, average, read-out: 24h_4NPloidy EC50_IP (uM Avg). In a few lines:
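DNA content measured by Hoechst 33342 nuclear staining (0.5 ug/ml, 45 min RT) and high-content imaging of fixed HeLa cells after 24 h compound exposure in 0.25% DMSO. Fractions of 4N and >4N cells fitted to dose curves giving EC50 IP, EC50 transit, Max and Min.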
Consider `c1ccc(-c2nnc(Nc3ccc(Sc4ccnc5cccnc45)cc3)c3ccccc23)cc1` [compound 309], for which the EC50 was found to be 0.021 µM.

With `Clc1ccc(-c2nnc(Nc3ccc(Sc4ccnc5cccnc45)cc3)c3ccccc23)cc1` [Example 33, N-(4-(1,5-naphthyridin-4-ylthio)phenyl)-4-(4-chlorophenyl)phthalazin-1-amine], the EC50 amounted to 0.002 µM.

Staying with this test, now noted: Homo sapiens, HeLa, 4N ploidy, average, read-out: 24h_4NPloidy EC50_IP (uM Avg).
Take `COc1cnc2c(Oc3ccc(Nc4nnc(-c5cccc(CO)n5)c5ccccc45)cc3)ccnc2c1` [compound 114]: the EC50 came out at 0.39 µM.

Take `COc1cnc2c(Oc3ccc(Nc4nnc(-c5ccc(OC(F)(F)F)cc5)c5ccccc45)cc3)ccnc2c1` [compound 163]: the EC50 is above 1.2 µM.

Consider `COc1cc2nccc(Sc3ccc(Nc4nnc(-c5ccccc5)c5ccccc45)cc3)c2cc1OC` [compound 104], for which the EC50 worked out at 0.02 µM.

Consider `COc1cc2nccc(Oc3ccc(Nc4ncc(-c5ccccc5)c5ccccc45)cc3)c2cn1` [compound 145], for which the EC50 is above 1.2 µM.

Turning to `CCc1cc(-c2ccccc2)nnc1Nc1ccc(Oc2ccnc3cc(C(N)=O)ccc23)cc1` [compound 49, 4-((4-((4-ethyl-6-phenyl-3-pyridazinyl)amino)phenyl)oxy)-7-quinolinecarboxamide], the EC50 came to 0.028 µM.

Consider `COc1cc2nccc(Oc3ccc(Nc4nnc(-c5ccccc5)c5ccccc45)cc3)c2cc1OC` [compound 90], for which the EC50 turned out to be 0.013 µM.

On to `COc1cncc(-c2nnc(Nc3ccc(Oc4ccnc5cc(OC)cnc45)cc3)c3ccccc23)c1` [compound 129], for which the EC50 was found to be 0.181 µM.

On to `COc1cc2nccc(Oc3ccc(Nc4nnc(-c5cccc(C)n5)c5ccccc45)cc3)c2cn1` [compound 110], for which the EC50 was determined as 0.124 µM.

With `COc1cnc2c(Oc3ccc(Nc4nnc(-c5ccc(C)cc5)c5ccccc45)cc3)ccnc2c1` [compound 81], the EC50 was found to be 0.008 µM.

Regarding `Cc1csc(-c2nnc(Nc3ccc(Oc4ccnc5cc(C(N)=O)ccc45)cc3)c3ccccc23)n1` [compound 95], the EC50 was found to be 0.167 µM.

For the compound `CCCc1cc(-c2ccccc2)nnc1Nc1ccc(Oc2ccnc3cc(OC)cnc23)cc1` [compound 156], the EC50 was 0.061 µM.

The same test, now with this note: Homo sapiens, HeLa, HeLa cells, 4N ploidy, average, read-out: 24h_4NPloidy EC50_IP (uM Avg).
As for `COc1ccc2nccc(Oc3ccc(Nc4nnc(-c5ccc6c(c5)OCO6)c5ccccc45)cc3)c2n1` [compound 551], the EC50 was 0.002 µM.

On to `c1ccc2c(Sc3ccc(Nc4nnc(-c5ccc6c(c5)OCO6)c5ccccc45)cc3)ccnc2c1` [compound 517], for which the EC50 was 0.011 µM.

As for `CNC(=O)c1cc(Sc2ccc(Nc3nnc(-c4ccc(Cl)cc4)c4ccccc34)cc2)ccn1` [compound 360], the EC50 stood at 0.413 µM.

For `COc1ccc2c(Cc3ccc(Nc4nnc(-c5ccc(Cl)cc5)c5ccccc45)cc3)ccnc2c1` [compound 328], the EC50 came out at 0.006 µM.

Turning to `COc1cnc2c(Sc3ccc(Nc4nnc(N5CC(C)CC(C)C5)c5ccccc45)cc3)ccnc2c1` (stereo not shown) [compound 556], the EC50 was 0.026 µM.

In the case of `COc1cnc2c(Oc3ccc(Nc4nnc(-c5ncco5)c5ccccc45)cc3)ccnc2c1` [compound 200], the EC50 was found to be 0.314 µM.

As for `Cc1csc(-c2nnc(Nc3ccc(Sc4ccnc5ccc(OC(F)(F)F)cc45)cc3)c3ccccc23)c1` [compound 572], the EC50 stood at 0.055 µM.

Turning to `CCc1ccc(-c2nnc(Nc3ccc(Oc4ccnc5cc(OC)cnc45)cc3)c3ccccc23)cc1` [compound 221], the EC50 was 0.015 µM.

Consider `Cc1ccc(-c2ccc3c(Oc4ccc(Nc5nnc(-c6ccccc6)c6ccccc56)cc4)ccnc3c2)o1` [compound 344], for which the EC50 is 0.044 µM.

Take `COc1cnc2c(Sc3ccc(Nc4nnc(NCCc5ccccn5)c5ccccc45)cc3)ccnc2c1` [compound 537]: the EC50 is 0.002 µM.

`Cc1ccc(-c2nnc(Nc3ccc(Sc4ccnc5cc(C6CC6)oc45)cc3)c3ccccc23)cc1N` [compound 487]: the EC50 is 0.006 µM.

Take `COc1ccc2nccc(Sc3ccc(Nc4nnc(-c5ccc(Cl)cc5)c5ccccc45)cc3)c2n1` [compound 348]: the EC50 came out at 0.012 µM.

Take `Cc1noc(-c2cc3nccc(Oc4ccc(Nc5nnc(-c6ccccc6)c6ccccc56)cc4)c3s2)n1` [compound 288]: the EC50 came out at 0.828 µM.

For the compound `COc1cnc2c(Sc3ccc(Nc4nnc(OC)c5ccccc45)cc3)ccnc2c1` [Example 402, 4-Methoxy-N-(4-(7-methoxy-1,5-naphthyridin-4-ylthio)phenyl)phthalazin-1-amine], the EC50 was determined as 0.066 µM.

For the compound `COc1cnc2c(Oc3ccc(Nc4nnc(-c5ccnn5C)c5ccccc45)cc3)ccnc2c1` [compound 223], the EC50 is above 1.2 µM.

On to `COc1cnc2c(Oc3ccc(Nc4nnc(-c5cc(C)no5)c5ccccc45)cc3)ccnc2c1` [compound 350], for which the EC50 was determined as 0.077 µM.

On to `COc1cnc2c(Oc3ccc(Nc4nnc(N5CC[C@H]6CCCC[C@@H]6C5)c5ccccc45)cc3)ccnc2c1` [compound 586], for which the EC50 came out at 0.028 µM.

On to `FC(F)(F)Oc1ccc2nccc(Oc3ccc(Nc4nnc(-c5ccc(Cl)cc5)c5ccccc45)cc3)c2c1` [compound 574], for which the EC50 is 0.119 µM.

Regarding `COc1cnc2c(Sc3ccc(Nc4nnc(N5CCN(CC(F)F)CC5)c5ccccc45)cc3)ccnc2c1` [compound 507], the EC50 was determined as 0.018 µM.

Turning to `c1ccc(-c2nnc(Nc3ccc(Oc4ncnc5nc[nH]c45)cc3)c3ccccc23)cc1` [compound 257], the EC50 is above 1.2 µM.

On to `Cc1ccc(-c2nnc(Nc3ccc(Sc4ccnc5cc(C#N)oc45)cc3)c3ccccc23)cc1N` [compound 490], for which the EC50 stood at 0.009 µM.

As for `COc1cc(OC)c2c(Oc3ccc(Nc4nnc(-c5ccc(Cl)cc5)c5ccccc45)cc3)ccnc2c1` [compound 435], the EC50 is 0.009 µM.

In the case of `Clc1ccc(-c2nnc(Nc3ccc(Oc4ccnc5ccoc45)cc3)c3ccccc23)cc1` [compound 483], the EC50 was determined as 0.102 µM.

On to `COc1cnc2c(Oc3ccc(Nc4nnc(N5CCN(S(C)(=O)=O)CC5)c5ccccc45)cc3)ccnc2c1` [compound 607], for which the EC50 came to 0.482 µM.

In the case of `Cc1noc(-c2cc3nccc(Sc4ccc(Nc5nnc(-c6ccc(Cl)cc6)c6ccccc56)cc4)c3s2)n1` [compound 323], the EC50 amounted to 0.131 µM.

Turning to `COc1ccc2nccc(Oc3ccc(Nc4nnc(-c5ccc(Cl)cc5)c5ccccc45)cc3)c2c1` [compound 239], the EC50 amounted to 0.001 µM.

For `COc1cnc2c(Oc3ccc(Nc4nnc(-c5ccc(F)c(OC)c5)c5ccccc45)cc3)ccnc2c1` [compound 180], the EC50 is 0.025 µM.

As for `c1ccc(-c2nnc(Nc3ccc(Oc4ccnc5cc(-c6ccsc6)ccc45)cc3)c3ccccc23)cc1` [compound 339], the EC50 amounted to 0.027 µM.

For `Fc1ccc2c(Oc3ccc(Nc4nnc(-c5ccc(Cl)cc5)c5ccccc45)cc3)ccnc2c1` [compound 455], the EC50 was determined as 0.008 µM.

Consider `Oc1ccc2nccc(Sc3ccc(Nc4nnc(-c5ccc(Cl)cc5)c5ccccc45)cc3)c2c1` [Example 388, 4-(4-(4-(4-Chlorophenyl)phthalazin-1-ylamino)phenylthio)quinolin-6-ol], for which the EC50 amounted to 0.013 µM.

With `COc1cnc2c(Oc3ccc(Nc4nnc(-c5ccc(Cl)c(Cl)c5)c5ccccc45)cc3)ccnc2c1` [compound 201, 4-(3,4-dichlorophenyl)-N-(4-((7-(methyloxy)-1,5-naphthyridin-4-yl)oxy)phenyl)-1-phthalazinamine], the EC50 came out at 0.022 µM.

Take `COCCOCCOc1ccc2nccc(Sc3ccc(Nc4nnc(-c5ccc(Cl)cc5)c5ccccc45)cc3)c2n1` [compound 475]: the EC50 is 0.017 µM.

As to `COc1cnc2c(Oc3ccc(Nc4nnc(-c5ccc(Cl)cn5)c5ccccc45)cc3)ccnc2c1` [compound 228, 4-(5-chloro-2-pyridinyl)-N-(4-((7-(methyloxy)-1,5-naphthyridin-4-yl)oxy)phenyl)-1-phthalazinamine], the EC50 is 0.035 µM.

Take `Cc1ccc(-c2nnc(Nc3ccc(Sc4ccnc5cc(C#N)sc45)cc3)c3ccccc23)cn1` [compound 461]: the EC50 came to 0.019 µM.

For the compound `COc1cnc2c(Oc3ccc(Nc4nnc(-c5ccc(C)nc5F)c5ccccc45)cc3)ccnc2c1` [compound 178], the EC50 was 0.027 µM.

On to `COc1cnc2c(Oc3ccc(Nc4nnc(-c5ccc(OC)c(C)c5)c5ccccc45)cc3)ccnc2c1` [compound 213], for which the EC50 is 0.044 µM.

As to `Clc1ccc(-c2nnc(Nc3ccc(Sc4ccnc5cc[nH]c45)cc3)c3ccccc23)cc1` [compound 463], the EC50 was determined as 0.01 µM.

With `COc1ccc2c(Sc3ccc(Nc4nnc(-c5ccccc5)c5ccccc45)cc3)ccnc2c1` [compound 331], the EC50 was found to be 0.021 µM.

Consider `Oc1cc(-c2nnc(Nc3ccc(Sc4ccnc5cccnc45)cc3)c3ccccc23)ccc1Cl` [compound 452], for which the EC50 was below 0.0023 µM.

Take `COc1cnnc(Nc2ccc(Oc3ccnc4cc(OC)cnc34)cc2)c1` [compound 456]: the EC50 is above 1.2 µM.

`COc1cnc2c(Oc3ccc(Nc4nnc(-c5cc(F)cc(F)c5)c5ccccc45)cc3)ccnc2c1` [compound 539]: the EC50 amounted to 0.081 µM.

With `Cc1cc2nccc(Sc3ccc(Nc4nnc(-c5ccc(Cl)cn5)c5ccccc45)cc3)c2s1` [compound 560], the EC50 was 0.023 µM.

The same test, now with this note: Homo sapiens, HeLa, HeLa cells, 4N ploidy, given as class symbol, read-out: 24h_4NPloidy EC50_IP (uM Avg).
Regarding `c1ccc(-c2nnc(Nc3ccc(Sc4ccnc5ccccc45)cc3)c3ccccc23)cc1` [compound 294], the EC50 is below 0.1 µM.

Still in this test, the particulars now being: Homo sapiens, HeLa, HeLa cells, average, read-out: 24h_4NPloidy EC50_IP (uM Avg).
For `COc1ccc2c(C(O)c3ccc(Nc4nnc(-c5ccc(Cl)cc5)c5ccccc45)cc3)ccnc2c1` (stereo not shown) [compound 614], the EC50 stood at 0.053 µM.

Take `COc1cnc2c([S+]([O-])c3ccc(Nc4nnc(-c5ccc(F)cc5)c5ccccc45)cc3)ccnc2c1` (stereo not shown) [Example 410, 4-(4-fluorophenyl)-N-(4-(7-methoxy-1,5-naphthyridin-4-ylsulfinyl)phenyl)phthalazin-1-amine]: the EC50 worked out at 0.26 µM.
